Results: patent US10919852B2, “Immunomodulator compounds” (CHEMOCENTRYX, INC., priority 2017, dated 2021)

Target: human PD-L1 / Human PD-1 (Homo sapiens (Human), UniProt Q9NZQ7)
Assay: Enzyme-Linked Immunosorbent Assay (ELISA), PD-1/PD-L1 binding
Details: plate-coated human PD-L1, biotinylated human PD-1
Description: Biological Example: Enzyme-Linked Immunosorbent Assay—ELISA
96 Well plates were coated with […] of human PD-L1 (obtained from R&D) in PBS overnight at 4° C. The wells were then blocked with 2% BSA in PBS (W/V) with 0.05% TWEEN-20 for 1 hour at 37° C. The plates were washed 3 times with PBS/0.05% TWEEN-20 and the compounds were serial diluted (1:5) in dilution medium and added to the ELISA plates. Human PD-1 and biotin 0.3 μg/mL (ACRO Biosystems) were added and incubated for 1 hour at 37° C. then washed 3 times with PBS/0.05% TWEEN-20. A second block was performed with 2% BSA in PBS (W/V)/0.05% TWEEN-20 for 10 min at 37° C. and was washed 3 times with PBS/0.05% TWEEN-20. Streptavidin-HRP was added for 1 hour at 37° C. then washed 3 times with PBS/0.05% TWEEN-20. TMB substrate was added and reacted for 20 min at 37° C. A stop solution (2 N aqueous H2SO4) was added. The absorbance was read at 450 nm using a micro-plate spectrophotometer.

human PD-L1 / Human PD-1, sequence (Q9NZQ7 19-239): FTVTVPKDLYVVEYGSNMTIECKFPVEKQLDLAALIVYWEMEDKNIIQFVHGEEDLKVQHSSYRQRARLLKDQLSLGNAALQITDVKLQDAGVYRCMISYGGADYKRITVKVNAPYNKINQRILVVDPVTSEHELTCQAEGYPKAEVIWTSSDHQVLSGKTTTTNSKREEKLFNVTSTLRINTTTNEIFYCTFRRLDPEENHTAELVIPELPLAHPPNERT

Row | IC50 [nM] | SMILES
1 | < 5 | N#Cc1cncc(COc2cc(O[C@H]3CCc4c(-c5cccc(OCCCN6CCC6)c5Cl)cccc43)c(Cl)cc2CNC[C@H]2CCC(=O)N2)c1
2 | 5 to 500 | CC1(F)CCN(CCCOc2cccc(-c3cccc4c3CC[C@@H]4Oc3cc(OCc4cncc(C#N)c4)c(CN4CC5(C4)NC(=O)NC5=O)cc3Cl)c2Cl)CC1
3 | < 5 | N#Cc1cncc(COc2cc(O[C@H]3CCc4c(-c5cccc(OCCCN6CC7(C6)CC(F)(F)C7)c5Cl)cccc43)c(Cl)cc2CN[C@@H]2CC[C@H]2O)c1
4 | 5 to 500 | COC(=O)[C@@H](NCc1cc(Cl)c(O[C@H]2CCc3c(-c4cccc(OCCCN5CCC(O)CC5)c4C)cccc32)cc1OCc1cncc(C#N)c1)[C@@H](C)O
5 | < 5 | Cc1c(OCCCN2CCC(O)CC2)cccc1-c1cccc2c1CC[C@@H]2Oc1cc(OCc2cncc(C#N)c2)c(CN2CC[C@H](O)C2)cc1Cl
6 | 5 to 500 | CCOc1cc(O[C@H]2CCc3c(-c4cccc(OCCCN5CCC5(C)C)c4C)cccc32)c(Cl)cc1CN(C)CCc1nnn[nH]1
7 | < 5 | CCOc1cc(O[C@H]2CCc3c(-c4cccc(OCCCN5CCC5(C)C)c4C)cccc32)c(Cl)cc1CN(C)CCCC(=O)O
8 | < 5 | C[C@@H](O)[C@H](NCc1cc(Cl)c(O[C@H]2CCc3c(-c4cccc(OCCCN5CC(O)C5)c4Cl)cccc32)cc1OCc1cncc(C#N)c1)C(=O)O
9 | < 5 | Cc1c(OCCCN2CC(C)(O)C2)cccc1-c1cccc2c1CC[C@@H]2Oc1cc(OCc2cncc(C#N)c2)c(CNCC2CCC(=O)N2)cc1Cl (some centres unmarked)
10 | < 5 | CCOc1cc(O[C@H]2CCc3c(-c4cccc(OCCCN5[C@H](C)CC[C@H]5C)c4C)cccc32)c(Cl)cc1CNC[C@@H]1CCC(=O)N1
11 | 5 to 500 | CCOc1cc(O[C@H]2CCc3c(-c4cccc(OCCCN5CCC5(C)C)c4C)cccc32)c(Cl)cc1CN1CC(C)(C(=O)O)C1
12 | 5 to 500 | CCOc1cc(O[C@H]2CCc3c(-c4cccc(OCCCN5CCC5(C)C)c4C)cccc32)c(Cl)cc1CNCCCS(=O)(=O)O
13 | < 5 | Cc1c(OCCCN2CCC(F)CC2)cccc1-c1cccc2c1CC[C@@H]2Oc1cc(OCc2cc(C#N)cc(C#N)c2)c(CN[C@H]2CCC[C@@H]2O)cc1Cl
14 | < 5 | COC(=O)C1(O)CCN(CCCOc2cccc(-c3cccc4c3CC[C@@H]4Oc3cc(OCc4cncc(C#N)c4)c(CN[C@H](C(=O)O)[C@@H](C)O)cc3Cl)c2C)C1 (some centres unmarked)
15 | 5 to 500 | Cc1c(OCCCN2CCC(F)CC2)cccc1-c1cccc2c1CC[C@@H]2Oc1cc(OCc2cc(C#N)cc(C#N)c2)c(CN[C@H]2CCCNC2=O)cc1Cl
16 | < 5 | C[C@@](CO)(NCc1cc(Cl)c(O[C@H]2CCc3c(-c4cccc(OCCCN5CCC5)c4Cl)cccc32)cc1OCc1cncc(C#N)c1)C(=O)O
17 | 5 to 500 | CCOc1cc(O[C@H]2CCc3c(-c4cccc(OCCCN5CCC5(C)C)c4C)cccc32)c(Cl)cc1CN1CC[C@H](C(=O)OC)C1
18 | < 5 | N#Cc1cncc(COc2cc(O[C@H]3CCc4c(-c5cccc(OCCCN6CCC(O)CC6)c5Cl)cccc43)c(Cl)cc2CN[C@@H](CO)C(=O)O)c1
19 | < 5 | Cc1c(OCCCN2CCC(F)CC2)cccc1-c1cccc2c1CC[C@@H]2Oc1cc(OCc2cncc(C#N)c2)c(CNCC2CCC(=O)N2)cc1Cl (some centres unmarked)

Row | IC50 [nM] | SMILES
20 | < 5 | N#Cc1cncc(COc2cc(O[C@H]3CCc4c(-c5cccc(OCCCN6CCC(O)CC6)c5Cl)cccc43)c(Cl)cc2CNC(CO)CO)c1
21 | < 5 | N#Cc1cc(C#N)cc(COc2cc(O[C@H]3CCc4c(-c5cccc(OCCCN6CCC(F)CC6)c5Cl)cccc43)c(Cl)cc2CNC[C@H]2CCC(=O)N2)c1
22 | 5 to 500 | CCOc1cc(O[C@@H]2c3cccc(-c4cccc(OCCCN5CC(F)C5)c4Cl)c3C[C@@H]2F)c(Cl)cc1CN[C@@](C)(CO)C(=O)O
23 | 5 to 500 | Cc1c(OCCCN2CCC(F)(C#N)CC2)cccc1-c1cccc2c1CC[C@@H]2Oc1cc(OCc2cc(C#N)cc(C#N)c2)c(CN[C@H]2CCC(=O)NC2)cc1Cl
24 | 5 to 500 | Cc1c(OCCCN2CCC(F)CC2)cccc1-c1cccc2c1CC[C@@H]2Oc1cc(OCc2cc(C#N)cc(C#N)c2)c(CN[C@H]2CCC(=O)NC2)cc1Cl
25 | 5 to 500 | CC1(F)CCN(CCCOc2cccc(-c3cccc4c3CC[C@@H]4Oc3cc(OCc4cncc(C#N)c4)c(CN4CCC5(C4)NC(=O)NC5=O)cc3Cl)c2Cl)CC1 (some centres unmarked)
26 | < 5 | C[C@@H](O)[C@H](NCc1cc(Cl)c(O[C@H]2CCc3c(-c4cccc(OCCCN5CC(O)C5)c4Cl)cccc32)cc1OCc1cncc(C#N)c1)C(=O)NS(C)(=O)=O
27 | 5 to 500 | Cc1c(OCCCN2CC(F)(F)C2)cccc1-c1cccc2c1CC[C@@H]2Oc1cc(OCc2cc(C#N)cc(C#N)c2)c(CNC[C@H]2CCC(=O)N2)cc1Cl
28 | < 5 | CC(CO)(CO)NCc1cc(Cl)c(O[C@H]2CCc3c(-c4cccc(OCCCN5CCNC(=O)C5)c4Cl)cccc32)cc1OCc1cncc(C#N)c1
29 | < 5 | Cc1c(OCCCN2CCC(F)CC2)cccc1-c1cccc2c1CC[C@@H]2Oc1cc(OCc2cc(C#N)cc(C#N)c2)c(CN[C@@H]2CCC[C@@H]2O)cc1Cl
30 | < 5 | Cc1c(OCCCN2CC(O)C2)cccc1-c1cccc2c1CC[C@@H]2Oc1cc(OCc2cncc(C#N)c2)c(CN[C@H](C(=O)O)[C@@H](C)O)cc1Cl
31 | 5 to 500 | CCOc1cc(O[C@H]2CCc3c(-c4cccc(OCCCN5CCC(F)CC5)c4Cl)cccc32)c(Cl)cc1CN[C@H](C(=O)NS(C)(=O)=O)[C@@H](C)O
32 | < 5 | Cc1c(OCCCN2CCC(C)(F)CC2)cccc1-c1cccc2c1CC[C@@H]2Oc1cc(OCc2cncc(C#N)c2)c(CN[C@@H]2CCC(=O)NC2)cc1Cl
33 | < 5 | Cc1c(OCCCN2CCC(O)CC2)cccc1-c1cccc2c1CC[C@@H]2Oc1cc(OCCCN2CC[C@H](O)C2)c(CN[C@@H]2CCCC[C@@H]2O)cc1Cl
34 | < 5 | CCCC(CO)(NCc1cc(Cl)c(O[C@H]2CCc3c(-c4cccc(OCCCN5CC(O)C5)c4Cl)cccc32)cc1OCc1cncc(C#N)c1)C(=O)O (some centres unmarked)
35 | 5 to 500 | CCOc1cc(O[C@H]2CCc3c(-c4cccc(OCCCN5CCC5(C)C)c4C)cccc32)c(Cl)cc1CN1CCC1(C)C
36 | < 5 | C[C@@](CO)(NCc1cc(Cl)c(O[C@H]2CCc3c(-c4cccc(OCCCN)c4Cl)cccc32)cc1OCc1cncc(C#N)c1)C(=O)O
37 | < 5 | N#Cc1cncc(COc2cc(O[C@H]3CCc4c(-c5cccc(OCCCN6CCC(O)CC6)c5Cl)cccc43)c(Cl)cc2CNC[C@@H]2CCC(=O)N2)c1
38 | 5 to 500 | CCOc1cc(O[C@H]2CCc3c(-c4cccc(OCCCN5[C@H](C)CC[C@H]5C)c4C)cccc32)c(Cl)cc1CN1CCC[C@H](C(=O)O)C1

Row | IC50 [nM] | SMILES
39 | < 5 | Cc1c(OCCCN2CC3(CC(O)C3)C2)cccc1-c1cccc2c1CC[C@@H]2Oc1cc(OCc2cncc(C#N)c2)c(CN[C@H](C(=O)O)[C@@H](C)O)cc1Cl
40 | 5 to 500 | Cc1c(OCCCN2CCC(C)(C)CC2)cccc1-c1cccc2c1CC[C@@H]2Oc1cc(OCc2cc(C#N)cc(C#N)c2)c(CN[C@H]2CCC(=O)NC2)cc1Cl
41 | 5 to 500 | CCOc1cc(O[C@H]2CCc3c(-c4cccc(OCCCN5CCC5(C)C)c4C)cccc32)c(Cl)cc1CN(CC)CCC(=O)O
42 | 5 to 500 | N#Cc1cncc(COc2cc(O[C@H]3CCc4c(-c5cccc(OCCCN6CC7(C6)CC(F)(F)C7)c5Cl)cccc43)c(Cl)cc2CN[C@H]2CC[C@@H]2O)c1
43 | < 5 | N#Cc1cncc(COc2cc(O[C@H]3CCc4c(-c5cccc(OCCCN6CC7(CC(F)C7)C6)c5Cl)cccc43)c(Cl)cc2CN[C@@H]2CCC[C@H]2O)c1
44 | < 5 | Cc1c(OCCCN2CCC(O)CC2)cccc1-c1cccc2c1C[C@H](F)[C@@H]2Oc1cc(OCc2cncc(C#N)c2)c(CN[C@@H]2CCCC[C@@H]2O)cc1Cl
45 | 5 to 500 | Cc1c(OCCCN2CCC(C)(F)CC2)cccc1-c1cccc2c1CC[C@@H]2Oc1cc(OCc2cc(C#N)cc(C#N)c2)c(CN[C@H]2CCC(=O)NC2)cc1Cl
46 | < 5 | N#Cc1cncc(COc2cc(O[C@H]3CCc4c(-c5cccc(OCCCN6CC7(CC(F)C7)C6)c5Cl)cccc43)c(Cl)cc2CN[C@H]2CC[C@@H]2O)c1
47 | < 5 | Cc1c(OCCCN[C@@H]2CCCC[C@@H]2O)cccc1-c1cccc2c1CC[C@@H]2Oc1cc(OCc2cncc(C#N)c2)c(CN[C@H](C(=O)O)[C@@H](C)O)cc1Cl
48 | < 5 | Cc1c(OCCCN2CCC(O)CC2)cccc1-c1cccc2c1CC[C@@H]2Oc1cc(OCc2cc(C#N)cc(C#N)c2)c(CN[C@@H]2CCCC[C@@H]2O)cc1Cl
49 | < 5 | C[C@@H](O)[C@H](NCc1cc(Cl)c(O[C@H]2CCc3c(-c4cccc(OCCCN5CCC(O)CC5)c4F)cccc32)cc1OCc1cncc(C#N)c1)C(=O)O
50 | < 5 | CC(CO)(NCc1cc(Cl)c(O[C@H]2CCc3c(-c4cccc(OCCCN5CC6(CC(O)C6)C5)c4Cl)cccc32)cc1OCc1cncc(C#N)c1)C(=O)O (some centres unmarked)
51 | < 5 | Cc1c(OCCCN2CCC(F)CC2)cccc1-c1cccc2c1CC[C@@H]2Oc1cc(OCc2cc(C#N)cc(C#N)c2)c(CNCC(=O)NS(C)(=O)=O)cc1Cl
52 | 5 to 500 | Cc1c(OCCCN2CCC(C)(F)C2)cccc1-c1cccc2c1CC[C@@H]2Oc1cc(OCc2cc(C#N)cc(C#N)c2)c(CN[C@H]2CCC(=O)NC2)cc1Cl (some centres unmarked)
53 | 5 to 500 | CN1CC(COc2cccc(-c3cccc4c3CC[C@@H]4Oc3cc(OCc4cncc(C#N)c4)c(CN[C@H]4CCC(=O)NC4)cc3Cl)c2Cl)CC1=O (some centres unmarked)
54 | 5 to 500 | CCOC(=O)CCN(C)Cc1cc(Cl)c(O[C@H]2CCc3c(-c4cccc(OCCCN5CCC5(C)C)c4C)cccc32)cc1OCC
55 | 5 to 500 | CCOc1cc(O[C@H]2CCc3c(-c4cccc(OCCCN5CCC5(C)C)c4C)cccc32)c(Cl)cc1CN1CC[C@@H](C(=O)O)C1
56 | < 5 | Cc1c(OCCCN2CCC(O)CC2)cccc1-c1cccc2c1CC[C@@H]2Oc1cc(OCc2cc(C#N)cc(C#N)c2)c(CN[C@@](C)(CO)C(=O)O)cc1Cl
